Assay results published in US10226467B2, “Compounds for the treatment of myotonic dystrophy” (UNIVERSITAT DE VALÈNCIA, priority 2014, dated 2019).

Assays:
[1] = tested on: ribonuclear foci in DM1 fibroblasts; assay: Ribonuclear foci per cell (in situ hybridization of CUG repeat RNA); format: cell-based, human; conditions: FIG. 4, versus DMSO
Description: Its reduction is typically used as evidence of desired activity against myotonic dystrophy in cell culture models because MBNL proteins are sequestered in ribonuclear foci. Since MBNL proteins are limiting in myotonic dystrophies an increase in free MBNLs is expected to be therapeutic. • Evidences from Human Myoblasts:
Cell model of the disease (provided by the D. Furling's laboratory, Institute of Myologie, Paris) consisted of normal and DM1 (1300 CTG repeats) immortalized (hTERT) skin fibroblasts expressing conditional MyoD. Fibroblast cells were grown in Dulbecco's Modified Eagle Medium (DMEM) with 4.5 g/L of glucose, 1% of penicillin and streptomycin (P/S) and 10% foetal bovine serum (FBS) (Sigma). Fibroblasts were transdifferentiated in myoblasts by inducing expression of MyoD. […]
In situ hybridization with CUG repeat RNA. […] Images were taken using a Leica DM2500 fluorescence microscope and foci were manually counted from at least 50 cells per compound.
DM1 fibroblasts were seeded in a […] (8000 cell/per well) in standard media one day before adding the compounds to the media. […] Incell 200 plate reader confocal was used for detection and quantification of the parameters selected and the data was analyzed using Graphpad software for statistical comparison of results.

[2] = tested on: MBNL1 in DM1 myoblasts; assay: Quantification of Mbl expression or localization (anti-MBNL1 immunodetection); format: cell-based, human; conditions: FIG. 6, at 1 microM, one day, versus DMSO
Description: Immortalized transdifferentiated DM1 fibroblasts were seeded in a […] (8000 cell/per well) in standard media. To achieve the differentiation of the fibroblast to myoblasts, we induced MyoD expression by changing the standard media to differentiation media with Doxocycline and without serum. 24 h after induction, the compounds were added the cells at different concentrations, always maintaining the concentration of the solvent (DMSO) at 1% in the media. Every concentration of compound was tested in three different wells. 24 h after adding the compounds the cells were fixed with paraformaldehyde 4% in PBS and Mbl detection using monoclonal anti-MBNL1 antibody was performed counterstaining with Hoechst to detect the nuclei. Incell 200 plate reader confocal was used for detection and quantification of the parameters selected and the data was analyzed using Graphpad software for statistical comparison of results.

[3] = tested on: 6-FAM-(CUG)23 probe (CUG repeats RNA); conditions: positive control, Warf et al. 2009; cited from earlier work
[4] = tested on: 6-FAM-(CUG)23 probe (CUG repeats RNA); assay: Fluorescence polarization assay of binding to CUG repeat RNA; conditions: FIG. 2; increasing concentrations; compared to a control compound that does not bind CUG repeats
Description: This was assessed in fluorescence polarization spectroscopy experiments. In these tests, when polarized light excites a fluorophore conjugated to a small molecule, it undergoes rotational diffusion faster than the time required for light emission occurs, resulting in a random arrangement of the molecule in the fluorescence emission time (depolarization). However, the rotation of the molecule becomes slower depending on the viscosity of the medium or the molecular volume, increasing the polarization of the emitted light. Thus, by measuring changes in polarization of an RNA with 23 CUG repeats conjugated to the fluorophore carboxyfluorescein, FAM (CUG) 23, we can consider whether a candidate molecule binds to the RNA.
Fluorescent CUG RNA (carboxyfluorescein (6-FAM)-labeled) was incubated with increasing concentrations of example compounds. […]
Carboxyfluorescein-labeled CUG RNA (6-FAM-CUG23) at 6 nM was incubated with the compounds at different concentrations in binding buffer (50 mM Tris-HCl pH 7.0, 250 mM NaCl, 50 μM ZnCl2, 10% glycerol, 1 mM DTT) on ice for 20 min in the dark. Polarization was measured in an EnVision® Multilabel Reader using as excitation filter FP480 and as emission filter FP535.

| Structure (SMILES) | Mbl staining intensity in nuclei [2] | also measured |
| --- | --- | --- |
| Cn1c(=O)c2c(ncn2CCCCCCCn2cnc3c2c(=O)n(C)c(=O)n3C)n(C)c1=O [Theophylline-C7] |  | mean number of ribonuclear foci per cell [1]: significantly decreased |
| CCCn1c(=O)c2[nH]cnc2n(CC)c1=O [Compound 9, 3-Ethyl-1-propylxanthine] | increase significantly |  |
| Cn1c(=O)[nH]c2ncn(C)c2c1=O [Compound 6, 1,7-Dimethylxanthine] | increase significantly |  |
| CC(C)Cn1c(=O)n(C)c(=O)c2[nH]cnc21 [Compound 7, 3-Isobutyl-1-methylxanthine] | increase significantly |  |
| N=C(N)c1ccc(OCCCCCOc2ccc(C(=N)N)cc2)cc1 [pentamidine] |  | binding to CUG repeats (previously shown) [3]: attached to the CUG repeats |
| Cn1c(=O)[nH]c(=O)c2[nH]cnc21 [Compound 8, 3-Methylxanthine] | increase significantly |  |
| Cn1c(=O)c2c(ncn2CCCCCCCCCn2cnc3c2c(=O)n(C)c(=O)n3C)n(C)c1=O [Theophylline-C9] |  | mean number of ribonuclear foci per cell [1]: significantly decreased; binding to CUG repeats (polarization of 6-FAM-(CUG)23 probe relative to probe alone) [4]: very strong bond |
